SMILES strings stand for the structures. Several values for one entry are separate records, joined by “and”; a condition that tells them apart may be missing. Identical values can stand only once.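 Growth conditions: 96-well plates. Treatment: test compound, 48 hours, 5 concentrations. Analysis: linear interpolation between bracketing concentrations; unreached endpoints set to highest concentration. GI50 = concentration required for 50% inhibition of growth. Definition used: TGI = concentration required for complete inhibition of growth.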 Where only a bound is given, the exact number is not on record here.

Test systems include DU-145 prostate; HCC-2998 colon; IGROV1 ovarian; NCI/ADR-RES ovarian; OVCAR-8 ovarian; RXF 393 renal; SF-295 CNS; SK-OV-3 ovarian; SN12C renal; SR leukemia.
Holding throughout (test): DTP human tumour cell line panel, 48 h

For `CCN(CC)CCCC(C)Nc1ccnc2cc(Cl)ccc12` (stereo not given), the GI50 (as a rule, the concentration at which growth is held to half of that of the control) was more than 100 µM in the assay on DU-145 prostate; more than 100 µM in the assay with IGROV1 ovarian; 57.5 µM with OVCAR-8 ovarian; 7.95 µM with RXF 393 renal; more than 100 µM with SK-OV-3 ovarian; more than 100 µM in the assay on SN12C renal. Moreover, the TGI (commonly the concentration giving total growth inhibition) with DU-145 prostate is more than 100 µM; with HCC-2998 colon, 48.8 µM; with IGROV1 ovarian it was more than 100 µM; in the assay with NCI/ADR-RES ovarian, more than 100 µM; in the assay on OVCAR-8 ovarian, more than 100 µM; with RXF 393 renal, > 100 µM and 26.2 µM. The TGI was 59.9 µM and > 60.1 µM in the assay with SF-295 CNS; more than 100 µM in the assay on SK-OV-3 ovarian; > 100 µM and 97.1 µM in the assay on SN12C renal; 66.2 µM with SR leukemia.
Consider `Cc1c(-c2ccc(C3CCCCC3)cc2)nc2ccc(F)cc2c1C(=O)O`, for which the GI50 in the assay on DU-145 prostate was 0.802 µM; with HCC-2998 colon it was 10.1 µM; in the assay on IGROV1 ovarian, 1 µM; in the assay on NCI/ADR-RES ovarian, 0.609 µM; in the assay with OVCAR-8 ovarian, 0.123 µM; in the assay with RXF 393 renal it was 10.7 µM. For the same compound, the GI50 in the assay on SF-295 CNS is 0.0881 µM; in the assay on SK-OV-3 ovarian, more than 100 µM; in the assay with SN12C renal it was 0.546 µM; in the assay on SR leukemia, 0.0629 µM. For the same compound, the TGI in the assay with DU-145 prostate, with HCC-2998 colon, in the assay with IGROV1 ovarian, in the assay on NCI/ADR-RES ovarian, in the assay on OVCAR-8 ovarian and with RXF 393 renal was more than 100 µM in each case. The TGI with SF-295 CNS, in the assay on SK-OV-3 ovarian, with SN12C renal and in the assay with SR leukemia was more than 100 µM each time.
For the compound `CC1CCN(Cc2ccc(NC(=O)c3cc4ccc5cccnc5c4[nH]3)cc2)CC1`, the GI50 was 8.79 µM with DU-145 prostate; 2.55 µM in the assay with HCC-2998 colon; 6.15 µM in the assay with IGROV1 ovarian; 17.3 µM with NCI/ADR-RES ovarian; 10.6 µM in the assay with OVCAR-8 ovarian; 2.18 µM with RXF 393 renal. Further, the GI50 in the assay on SF-295 CNS was 1.98 µM; in the assay on SK-OV-3 ovarian it was 6.98 µM; in the assay with SN12C renal it was 7.9 µM; with SR leukemia, 2.29 µM. Further, the TGI in the assay with DU-145 prostate is more than 100 µM; with HCC-2998 colon it was 5.8 µM; with IGROV1 ovarian it was 54.1 µM; with NCI/ADR-RES ovarian it was 68.9 µM; in the assay on OVCAR-8 ovarian, 29.5 µM; in the assay with RXF 393 renal, 6.26 µM. For the same compound, the total growth inhibition concentration (TGI) with SF-295 CNS was 4.45 µM; in the assay on SK-OV-3 ovarian, 42.5 µM; with SN12C renal, 29.4 µM; in the assay on SR leukemia, 6.65 µM.
As for `CC1=C2CC(C)(C)/C=C\C(=O)/C(C)=C\C3=C[C@H](C)C[C@]3(O2)C1=O`, the TGI stood at 12.1 µM in the assay with DU-145 prostate; 10.2 µM in the assay on HCC-2998 colon; 5.44 µM in the assay on IGROV1 ovarian; 7.77 µM with NCI/ADR-RES ovarian; 6.82 µM with OVCAR-8 ovarian; 2.13 µM in the assay with RXF 393 renal. Moreover, the TGI stood at 22 µM in the assay with SF-295 CNS, 24.6 µM in the assay with SK-OV-3 ovarian, 10.2 µM with SN12C renal and 0.826 µM with SR leukemia.
Consider `COc1cc(C2CC(c3cccc(Nc4ccnc5cc(Cl)ccc45)c3)=NN2c2ccc(Cl)cc2)cc(OC)c1OC` (stereo not given), for which the GI50 in the assay with DU-145 prostate is 17.1 µM; in the assay on HCC-2998 colon, 3.14 µM; with IGROV1 ovarian, 3.89 µM; with NCI/ADR-RES ovarian it was 3.18 µM; with OVCAR-8 ovarian, 5.36 µM; in the assay on RXF 393 renal, 2.42 µM. The GI50 in the assay with SF-295 CNS was 1.71 µM; with SK-OV-3 ovarian, 17.3 µM; with SN12C renal it was 7.24 µM; in the assay on SR leukemia, 2.54 µM. Also, the concentration for total growth inhibition (TGI) with DU-145 prostate was more than 100 µM; in the assay with HCC-2998 colon, 22.1 µM; with IGROV1 ovarian, more than 100 µM; in the assay with NCI/ADR-RES ovarian it was more than 100 µM; in the assay with OVCAR-8 ovarian it was more than 100 µM; in the assay on RXF 393 renal, 34.4 µM. Besides, the TGI with SF-295 CNS was 33.8 µM; in the assay with SK-OV-3 ovarian it was more than 100 µM; in the assay on SN12C renal it was more than 100 µM; in the assay with SR leukemia, more than 100 µM.
`C[C@@]1(C(=O)O)CCC[C@]2(C)C1CC[C@@]13C[C@@](O)(CC[C@]12O)[C@@]1(CO1)C3` (stereo not given in full): the GI50 in the assay on DU-145 prostate, in the assay with HCC-2998 colon, in the assay with IGROV1 ovarian, in the assay with NCI/ADR-RES ovarian, with OVCAR-8 ovarian and in the assay with RXF 393 renal was more than 100 µM throughout. The GI50 in the assay on SF-295 CNS, in the assay with SK-OV-3 ovarian and with SN12C renal was more than 100 µM each time. In addition, the TGI in the assay on DU-145 prostate, with HCC-2998 colon, in the assay on IGROV1 ovarian, in the assay on NCI/ADR-RES ovarian, with OVCAR-8 ovarian and with RXF 393 renal was more than 100 µM in each case. For the same compound, the TGI in the assay with SF-295 CNS, with SK-OV-3 ovarian, in the assay on SN12C renal and with SR leukemia was more than 100 µM each time.
`C=C(CN1CCN(c2ccc(C(F)(F)F)cc2)CC1)c1ccc(C(=O)Nc2ccccc2N)cc1`: the GI50 in the assay with DU-145 prostate was 21 µM; in the assay on HCC-2998 colon, 30.2 µM; in the assay with IGROV1 ovarian, 18.2 µM; with NCI/ADR-RES ovarian it was 3.37 µM; in the assay on OVCAR-8 ovarian it was 6.95 µM; in the assay with RXF 393 renal, 1.97 µM. Also, the GI50 in the assay on SF-295 CNS was 10.8 µM; in the assay with SK-OV-3 ovarian, 12.1 µM; with SN12C renal it was 6.37 µM; in the assay with SR leukemia it was 1.1 µM. Besides, the TGI was more than 100 µM in the assay on DU-145 prostate; more than 100 µM in the assay with HCC-2998 colon; more than 100 µM in the assay on IGROV1 ovarian; more than 100 µM in the assay on NCI/ADR-RES ovarian; more than 100 µM in the assay with OVCAR-8 ovarian; 6 µM in the assay with RXF 393 renal. Besides, the TGI with SF-295 CNS, in the assay with SK-OV-3 ovarian, in the assay on SN12C renal and with SR leukemia was more than 100 µM throughout.
As for `NC(N)=NCC1CCCCCCN1` (stereo not given), the TGI in the assay on DU-145 prostate, in the assay with HCC-2998 colon, with IGROV1 ovarian, with NCI/ADR-RES ovarian, with OVCAR-8 ovarian and in the assay with RXF 393 renal was more than 100 µM each time. In addition, the TGI in the assay with SF-295 CNS, in the assay with SK-OV-3 ovarian, with SN12C renal and in the assay on SR leukemia was more than 100 µM throughout.
For the compound `COc1ccc([N+](=O)[O-])c2c(NCCCN(C)C)ccnc12`, the TGI was 29.1 µM in the assay on DU-145 prostate; 6.95 µM with HCC-2998 colon; 4.85 µM in the assay with IGROV1 ovarian; 42.2 µM in the assay with NCI/ADR-RES ovarian; more than 48.5 µM in the assay on OVCAR-8 ovarian; 8.32 µM in the assay with RXF 393 renal. For the same compound, the TGI with SF-295 CNS worked out at 24.8 µM; in the assay with SK-OV-3 ovarian it was 43.2 µM; in the assay with SN12C renal it was 34 µM; with SR leukemia, 1.97 µM.
Regarding `CCCCCCCCCCCCCCCCCc1nccn1CCOCCO`, the GI50 in the assay on DU-145 prostate was 5.34 µg/mL; in the assay on HCC-2998 colon, 5.76 µg/mL; in the assay with IGROV1 ovarian, 6.03 µg/mL; in the assay with NCI/ADR-RES ovarian it was 20.4 µg/mL; in the assay on OVCAR-8 ovarian, 5.64 µg/mL; with RXF 393 renal, 5.04 µg/mL. Further, the GI50 was 5.27 µg/mL in the assay on SF-295 CNS, 5.67 µg/mL in the assay on SK-OV-3 ovarian, 5.11 µg/mL in the assay on SN12C renal and 4.93 µg/mL in the assay on SR leukemia. In addition, the TGI worked out at 10.4 µg/mL with DU-145 prostate; 11.1 µg/mL with HCC-2998 colon; 13.2 µg/mL in the assay on IGROV1 ovarian; 37.5 µg/mL in the assay with NCI/ADR-RES ovarian; 11.6 µg/mL with OVCAR-8 ovarian; 10.1 µg/mL in the assay on RXF 393 renal. The TGI came out at 11 µg/mL with SF-295 CNS, 10.8 µg/mL in the assay on SK-OV-3 ovarian, 10.1 µg/mL in the assay with SN12C renal and 11.9 µg/mL with SR leukemia.
Consider `O=C1/C=C/[C@@H](O)[C@@H]2C[C@@H](O)C[C@H]2/C=C/CCC[C@H](CCc2cccc3ccccc23)O1`, for which the GI50 is 0.377 µM in the assay with DU-145 prostate; 0.0444 µM with HCC-2998 colon; 0.267 µM with IGROV1 ovarian; 0.0389 µM in the assay with NCI/ADR-RES ovarian; 0.0491 µM in the assay with OVCAR-8 ovarian; 0.0227 µM with RXF 393 renal. For the same compound, the GI50 with SF-295 CNS was 0.0388 µM; in the assay on SK-OV-3 ovarian, 0.064 µM; in the assay on SN12C renal, 0.248 µM; in the assay on SR leukemia, 0.0353 µM. In addition, the TGI was 14.7 µM in the assay with DU-145 prostate; 0.33 µM with HCC-2998 colon; 12.1 µM in the assay on IGROV1 ovarian; 1.86 µM in the assay with NCI/ADR-RES ovarian; 13 µM in the assay on OVCAR-8 ovarian; 0.0674 µM with RXF 393 renal. The TGI was 10.1 µM in the assay with SF-295 CNS, 12 µM with SK-OV-3 ovarian, 11.5 µM with SN12C renal and 1.33 µM in the assay with SR leukemia.
In the case of `Cc1c(O)c(N=Nc2nc3ccccc3s2)c2ccccc2c1O`, the GI50 is 23.4 µM in the assay with DU-145 prostate; more than 50 µM in the assay with HCC-2998 colon; 17.6 µM in the assay on IGROV1 ovarian; 34.3 µM in the assay on NCI/ADR-RES ovarian; 19.7 µM in the assay with OVCAR-8 ovarian; 12.5 µM in the assay on RXF 393 renal. Also, the GI50 in the assay with SF-295 CNS was 24.7 µM; in the assay on SK-OV-3 ovarian it was 30.1 µM; in the assay with SN12C renal, 16.7 µM; with SR leukemia, more than 50 µM. Further, the TGI in the assay with DU-145 prostate was more than 50 µM; in the assay on HCC-2998 colon, more than 50 µM; in the assay on IGROV1 ovarian it was more than 50 µM; with NCI/ADR-RES ovarian it was more than 50 µM; in the assay on OVCAR-8 ovarian it was more than 50 µM; in the assay with RXF 393 renal it was 39.7 µM. Besides, the concentration for total growth inhibition (TGI) in the assay with SF-295 CNS, with SK-OV-3 ovarian, with SN12C renal and with SR leukemia was more than 50 µM each time.
`CO[C@H]1C=CO[C@@]2(C)Oc3c(C)c(O)c4c(O)c(c(CN5CCN(C)CC5)c(O)c4c3C2=O)NC(=O)/C(C)=C\C=C[C@H](C)[C@H](O)C(C)[C@@H](O)C(C)[C@H](OC(C)=O)[C@@H]1C` (stereo not given in full): the TGI in the assay with DU-145 prostate, in the assay with HCC-2998 colon, in the assay on IGROV1 ovarian, in the assay on NCI/ADR-RES ovarian, in the assay on OVCAR-8 ovarian and in the assay with RXF 393 renal was more than 100 µM throughout. The TGI was more than 100 µM in the assay on SF-295 CNS, more than 100 µM in the assay on SK-OV-3 ovarian, more than 93.9 µM in the assay on SN12C renal and 35.5 µM with SR leukemia.

(Values after PubChem BioAssay (NCI).)
